Assay [1] deals with T1, recombinant full-length TDP1 (Homo sapiens, UniProt Q9NUW8). More on the design: was incubated for 15 min. with recombinant full-length TDP1 or TDP1^Y204F (40 pM); method as in PMID 31199869. The note with it: reported data; cited from earlier work.
Assay [2] deals with T1, recombinant full-length TDP1. Briefly: gel-based TDP1 fluorescence assay in vitro (wild-type TDP1).
Protocol: The inhibition of TDP1 or TDP1^Y204F was also conducted using a gel-based assay as previously described[13],[14]. Briefly, the DNA substrate (1 nM, 5′Cy5-[sequence]-pY-3′, Cy5-N14Y) was incubated for 15 min. with recombinant full-length TDP1 or TDP1^Y204F (40 pM) in the absence or presence of inhibitors for 5 min. or 3 hr preincubation time as shown in Table 1 at room temperature (22 °C) in TDP1 reaction buffer (50 mM Tris HCl, pH 7.5, 80 mM KCl, 2 mM EDTA, 1 mM DTT, 40 µg/mL BSA and 0.01% Tween-20). […] Samples were then subjected to a 20% denaturing PAGE gel following by gel scanning using a Typhoon FLA 9500 scanner (GE Healthcare). The IC50 values of TDP1 inhibitors were calculated by comparing the percentage of cleavage product (5′Cy5-[sequence]-p-3′, Cy5-N14P) to DMSO control.
The target of assay [3] is T2, TDP1^Y204F (Homo sapiens, UniProt Q9NUW8, Y204F).
T2 construct: was incubated for 15 min. with recombinant full-length TDP1 or TDP1^Y204F (40 pM)
T2 sequence (Q9NUW8 whole entry Y204F): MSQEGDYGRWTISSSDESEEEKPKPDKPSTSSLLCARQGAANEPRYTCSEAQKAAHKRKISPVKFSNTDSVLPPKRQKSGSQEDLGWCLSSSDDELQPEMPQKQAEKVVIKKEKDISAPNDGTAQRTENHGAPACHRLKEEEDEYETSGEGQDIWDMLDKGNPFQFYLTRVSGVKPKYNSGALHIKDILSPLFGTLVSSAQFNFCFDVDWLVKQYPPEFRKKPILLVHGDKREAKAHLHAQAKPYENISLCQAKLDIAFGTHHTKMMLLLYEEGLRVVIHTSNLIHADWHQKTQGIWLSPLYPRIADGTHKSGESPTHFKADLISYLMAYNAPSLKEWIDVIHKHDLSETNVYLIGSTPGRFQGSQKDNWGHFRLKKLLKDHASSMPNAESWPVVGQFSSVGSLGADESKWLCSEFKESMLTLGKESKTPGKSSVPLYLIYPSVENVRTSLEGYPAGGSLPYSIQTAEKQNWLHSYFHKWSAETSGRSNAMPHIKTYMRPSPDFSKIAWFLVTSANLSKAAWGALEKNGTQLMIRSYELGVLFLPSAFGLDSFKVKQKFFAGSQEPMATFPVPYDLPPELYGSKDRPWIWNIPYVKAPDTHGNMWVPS
Briefly: gel-based TDP1 fluorescence assay in vitro (mutant TDP1 Y204F). It counts as biochemical. The procedure:
The inhibition of TDP1 or TDP1^Y204F was also conducted using a gel-based assay as previously described[13],[14]. Briefly, the DNA substrate (1 nM, 5′Cy5-[…]-pY-3′, Cy5-N14Y) was incubated for 15 min. with recombinant full-length TDP1 or TDP1^Y204F (40 pM) in the absence or presence of inhibitors for 5 min. or 3 hr preincubation time as shown in Table 1 at room temperature (22 °C) in TDP1 reaction buffer (50 mM Tris HCl, pH 7.5, 80 mM KCl, 2 mM EDTA, 1 mM DTT, 40 µg/mL BSA and 0.01% Tween-20). […] Samples were then subjected to a 20% denaturing PAGE gel following by gel scanning using a Typhoon FLA 9500 scanner (GE Healthcare). The IC50 values of TDP1 inhibitors were calculated by comparing the percentage of cleavage product (5′Cy5-[…]-p-3′, Cy5-N14P) to DMSO control.

In assay [4] the target is T3, TDP1(148-608) (Homo sapiens, UniProt Q9NUW8).
T3 construct: The recombinant TDP1(148-608) (2 μg) in 50 μL of buffer
T3 sequence (Q9NUW8 148-608): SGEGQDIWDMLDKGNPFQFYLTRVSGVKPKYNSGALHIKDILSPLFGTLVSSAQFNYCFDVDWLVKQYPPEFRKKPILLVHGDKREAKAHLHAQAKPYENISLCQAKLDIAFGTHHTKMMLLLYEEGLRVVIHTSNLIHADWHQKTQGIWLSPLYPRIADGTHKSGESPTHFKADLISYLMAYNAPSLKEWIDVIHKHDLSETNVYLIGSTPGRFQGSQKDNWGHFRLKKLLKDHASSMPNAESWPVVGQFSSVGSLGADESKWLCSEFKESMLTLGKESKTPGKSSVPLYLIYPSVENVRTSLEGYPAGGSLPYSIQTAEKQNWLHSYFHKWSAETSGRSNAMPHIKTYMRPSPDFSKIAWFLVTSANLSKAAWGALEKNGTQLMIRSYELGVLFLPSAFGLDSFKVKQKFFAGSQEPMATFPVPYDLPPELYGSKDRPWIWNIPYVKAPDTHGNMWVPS
In words: intact mass LC-MS analysis of covalent modification. It counts as binding. The note with it: 50 μM compound, overnight 25 °C, 1:65 enzyme/compound. The procedure: The samples were incubated overnight at 25 °C with shaking at 500 rpm. The samples were diluted with water to 100 μL and analyzed by liquid chromatography coupled online with mass spectrometry (LC-MS)[67]. Separation was performed on a Vanquish Flex chromatographic system (Thermo) using a MabPac reversed-phase column (4 μm, 1500 Å, 3 ×50 mm, Thermo) maintained at 50 °C. The labeled proteins were resolved at 0.5 mL/min over a 15 min gradient of buffer B (47.5% acetonitrile, 47.5% isopropanol, 5% water, 0.2% formic acid (FA)) from 2 to 100% followed by re-equilibration at 2% buffer B (total run time 20 min) against buffer A (5% acetonitrile, 0.2% FA in water). The eluates from the column were introduced to an Exactive Plus EMR mass spectrometer (Thermo) through a heated electrospray ionization (HESI) source. Intact mass spectra were acquired over 500-2000 m/z window at 35,000 FT resolution (at 200 m/z), averaging 10 microscans, with an AGC target of 3 ×10^6, max injection time of 200 ms, 80% S-lens RF level, 20 V source-induced dissociation, and capillary temperature set at 275 °C. The resulting spectra were manually averaged followed by deconvolution using the ReSpect algorithm in BioPharma Finder 2.0 (Thermo). […]

The mark [5] stands for this setting: TDP1 IC50, pre-incubation time 5 min with wild-type (WT) TDP1.

Structures are written as SMILES. Where two headings read alike, the source gives them in different places.

T1 sequence (Q9NUW8 whole entry): as the sequence (Q9NUW8 whole entry Y204F) above, with F204Y counted along it

With `O=C(O)c1cnc2ccccc2c1O` [Compound 1a], in assay [1], the IC50 was 7.2 mM.

In the case of `O=C(O)c1c[nH]c2c(S(=O)(=O)O)cccc2c1=O` [Compound 2a], the IC50 in assay [2] was 4.61 ± 0.35 mM.

Turning to `O=C(O)c1c[nH]c2c(S(=O)(=O)Nc3ccccc3)cccc2c1=O` [Compound 2b], the IC50 in assay [2] was > 9 mM.

On to `O=C(O)c1c[nH]c2c(S(=O)(=O)NCCc3ccccc3)cccc2c1=O` [Compound 2c], for which, in assay [2], the half-inhibitory concentration (IC50) is > 9 mM.

With `O=C(O)c1c[nH]c2c(S(=O)(=O)NCCCc3ccccc3)cccc2c1=O` [Compound 2d], the IC50 in assay [2] (read-out: TDP1 IC50, WT TDP1, dash = no activity up to highest tested concentration) was > 9 mM.

On to `O=C(O)c1c[nH]c2c(-c3ccccc3)cccc2c1=O` [Compound 3a], for which the IC50 in assay [2] came out at 5.17 ± 0.14 mM.

Consider `O=C(O)c1c[nH]c2c(-c3cccc(OS(=O)(=O)F)c3)cccc2c1=O` [Compound 3d], for which, in assay [2] (setting [5]), the half-maximal inhibitory concentration (IC50) came to 0.69 ± 0.04 mM.

For `O=C(NCCc1ccccc1)c1ccc(-c2cccc3c(=O)c(C(=O)O)c[nH]c23)c(OS(=O)(=O)F)c1` [Compound 3g, 8-(2-((fluorosulfonyl)oxy)-4-(phenethylcarbamoyl)phenyl)-4-oxo-1,4-dihydroquinoline-3-carboxylic acid], the IC50 in assay [3] turned out to be 4.69 ± 1.26 mM; in assay [2] (setting [5]), 0.41 ± 0.07 mM; in assay [2] (TDP1 IC50, pre-incubation time 3 h with WT TDP1), 0.27 ± 0.03 mM. In addition, the “fold reduced inhibitory potency with mutant TDP1^Y204F vs WT” value in assay [3] (5 min pre-incubation) was 11 fold. Also, in assay [4], the “mass shift of single covalent modification of TDP1(148-608) (loss of fluorine)” value is “+490.83 Da”. The “fold increase in inhibitory potency relative to parent compound 3c” value in assay [2] is on record as 5 to 10 fold. In addition, the “fold increase in inhibitory potency compared with quinolone 1a” value in assay [2] (5 min pre-incubation, WT TDP1, vs 1a IC50 7.2 mM) was 18 fold. Further, the “fold increase in TDP1 inhibitory potency compared to quinolone 3a” value in assay [2] (5 min pre-incubation, WT TDP1, vs 3a IC50 5.17 mM) is recorded as 13 fold. In assay [2] (WT TDP1), the “fold enhancement of IC50 by extending pre-incubation time from 5 min to 3 h” value came to 1.5 fold.

As a reminder, the IC50 is the midpoint of a concentration-inhibition curve.

The values are drawn from PMC11405833, “Targeted sulfur(VI) fluoride exchange-mediated covalent modification of a tyrosine residue in the catalytic pocket of tyrosyl-DNA phosphodiesterase 1” (Communications Chemistry, 2024).
